Data published in patent US11319274B2, “Process for the preparation of polymorph form B of treprostinil diethanolamine salt” (CHINOIN GYÓGYSZER ÉS VEGYÉSZETI TERMÉKEK GYÁRA ZRT., priority 2018, dated 2022).
Structures can show the parent of a compound that is named as a salt. Where two headings read alike, the source gives them in different places.

Experiments:
[1] = hygroscopic character of the polymorph forms; type: physicochemical; details: crystals from methanol-methyl tertiary-butyl ether at −70° C. (example 17)
Description: (§1) The two polymorph forms (forms A and B) of the crystalline treprostinil diethanolamine salt were first described in patent specification WO2005/007081. The polymorph forms were characterized by their melting point, X-ray powder diffraction pattern, DSC (Differential Scanning calorimetry) and TGA (Thermogravimetric Analysis) curves, and by their hygroscopic character.
(§2) Polymorph form B of treprostinil diethanolamine salt was obtained also if the salt was dissolved in methanol, the solution was set to opalescent with methyl tertiary-butyl ether at 45° C. and then crystallisation was completed at room temperature (yield 87%) (example 16.). […] This form is named polymorph form C (example 17.).

[2] = relative stability / transformation of the polymorph forms; type: physicochemical; details: on the basis of the DSC curve; transforms in the DSC tube into the more stable, higher melting form
Description: as §1
Publication Organic Process & Development, 2009, 13, 242-249. (Crystallization Process Development for Stable Polymorph of Treprostinil; Batra, H.; Penmasta, R.; Phares, K.; Staszewski, J.; Tuladhar, S. M; D. A. Walsh, United Therapeutics) describes in detail the physical characteristics of the two polymorphs and the experiments carried out for their preparation.
as §2
DSC: • Instrument: METTLER TOLEDO DSC1 STARe System, Stare basic V9.30 • Method: Starting temperature: 30° C. • Final temperature: 150° C. • Heating rate: 5° C./min • Amount: 2-6 mg, perforated aluminum crucible (40 μl)

[3] = crystalline polymorph, as stated in WO2005/007081; cited from earlier work
[4] = cited from earlier work; for polymorph stability: as stated in WO2005/007081

Row | hygroscopic character [1] | polymorph stability [2] | SMILES | hygroscopic character [3] | polymorph stability [4] | transformation on standing ([4]; Organic Process & Development, 2009, 13, 242-249) | transformation in suspension ([4]; suspension in organic solvents (1,4-dioxane, isopropanol, tetrahydrofuran, toluene), agitation at different temperatures, WO2005/007081)
1 | highly hygroscopic | less stable form | CCCCC[C@H](O)CC[C@@H]1[C@H]2Cc3cccc(OCC(=O)O)c3C[C@H]2C[C@H]1O [polymorph form C, (1R,2R,3aS,9aS)-2-[2-Hydroxy-1-[3(S)-hydroxyoctyl]-2,3,3a,4,9,9a-hexahydro-1H-benz[f]inden-5-yloxy] acetic acid diethanolamine salt] |  |  |  | 
2 |  |  | CCCCC[C@H](O)CC[C@@H]1[C@H]2Cc3cccc(OCC(=O)O)c3C[C@H]2C[C@H]1O [form B, (1R,2R,3aS,9aS)-2-[2-Hydroxy-1-[3(S)-hydroxyoctyl]-2,3,3a,4,9,9a-hexahydro-1H-benz[f]inden-5-yloxy] acetic acid diethanolamine salt] | much less hygroscopic | more stable |  | 
3 |  |  | CCCCC[C@H](O)CC[C@@H]1[C@H]2Cc3cccc(OCC(=O)O)c3C[C@H]2C[C@H]1O [form A, (1R,2R,3aS,9aS)-2-[2-Hydroxy-1-[3(S)-hydroxyoctyl]-2,3,3a,4,9,9a-hexahydro-1H-benz[f]inden-5-yloxy] acetic acid diethanolamine salt] | hygroscopic | metastable | on standing transforms into the thermodynamically more stable form B | transforms into form B on agitation
